The OligoGym collection
Bases are written 5' to 3'; sugars and linkages follow in the same order, as letters with counts (s phosphorothioate, o phosphodiester; PS: all linkages phosphorothioate). The collection does not say whether C is 5-methylated. l = locked nucleic acid (LNA); d = 2'-deoxy (DNA)

What follows are sequences tested against Tau (assay: rat primary cortical neurons, FLIPR, 25 uM ASO).

Going from AAGTCCCGAGCCAAA (sugars l3 d9 l3, PS) to CTCCTGGTTTATGATG (sugars l3 d10 l3, PS), the calcium oscillation score falls from 102 % of control to 31.3 % of control.

First: AATTATTAAATCTTCTCTTA (sugars l4 d12 l4, PS)
Second: TAATTACATTTTTTCTTTTT (sugars l4 d12 l4, PS)
The calcium oscillation score of the first is higher: 62.6 % of control for the first, 58.2 % of control for the second.

First: CCTAATGAGCCACACT (sugars l3 d10 l3, PS)
Second: GTTTTCAAACACACCTT (sugars l3 d10 l4, PS)
The calcium oscillation score of the first is lower: 92.6 % of control for the first, 104 % of control for the second.

Going from GCGTTCTCGCGGAA (sugars l3 d8 l3, PS) to “TCCCCACCCAAACTCCA (sugars l2 d13 l2, PS)”, the calcium oscillation score rises from 3.83 % of control to 80.8 % of control.

Compared with GTGATATTGTCCAGGG (sugars l3 d10 l3, PS), “GCTCCAACCACACCTTT (sugars l2 d11 l4, PS)” is higher in calcium oscillation score: 14.8 % of control for the first, 87.2 % of control for the second.

Compared with TCCATCCTAAGTCAAC (sugars l3 d9 l4, PS), “CTTTATTTCCAAATTCACTT (sugars l3 d14 l3, PS)” is higher in calcium oscillation score: 65.3 % of control for the first, ≥ 200 % of control for the second.

Compared with CAAACCAGTTACCATCA (sugars l4 d9 l4, PS), CTCCTATATTCTCAGT (sugars l3 d9 l4, PS) is lower in calcium oscillation score: 87.7 % of control for the first, 73.7 % of control for the second.

Compared with “ACAAACCAGTTACCATC (sugars l3 d10 l4, PS)”, “AATTTACACCCAAACCTAA (sugars l4 d11 l4, PS)” is higher in calcium oscillation score: 87.7 % of control for the first, 106 % of control for the second.

Compared with GGGCGAGTCTACCATG (sugars l3 d10 l3, PS), “TGCAAGAGTCACTGCACTGC (sugars l3 d14 l3, PS)” is higher in calcium oscillation score: 16.3 % of control for the first, 23.8 % of control for the second.

Compared with “ATTCACACAACAAACTATT (sugars l4 d11 l4, PS)”, AGCGTGATCTTCCATC (sugars l3 d10 l3, PS) is higher in calcium oscillation score: 74.5 % of control for the first, 101 % of control for the second.

Compared with CATCAAATCCATGCAT (sugars l4 d8 l4, PS), AGTCACTCTGGTGA (sugars l3 d8 l3, PS) is higher in calcium oscillation score: 76.7 % of control for the first, 97.1 % of control for the second.

Compared with “CGAACTGCGAGGAGCAGCTG (sugars l3 d14 l3, PS)”, “GGAGTGCTCTTAGCATCAGA (sugars l3 d14 l3, PS)” is higher in calcium oscillation score: 0 % of control for the first, 14.8 % of control for the second.

Compared with “TTTTTACCAATTTGCCT (sugars l2 d11 l4, PS)”, AGAAATAAGTGGTAGT (sugars l4 d8 l4, PS) is higher in calcium oscillation score: 55.5 % of control for the first, 88.1 % of control for the second.

Compared with “ACATCTAAACACCTCAATCC (sugars l2 d15 l3, PS)”, TGATCACCCTAAACCA (sugars l3 d10 l3, PS) is higher in calcium oscillation score: 73.2 % of control for the first, 118 % of control for the second.

Compared with GATCTTAGGCTGGC (sugars l3 d8 l3, PS), “CTTCAGGTCTGGCATGGGCA (sugars l3 d14 l3, PS)” is lower in calcium oscillation score: 4.6 % of control for the first, 0 % of control for the second.

Going from “AACCAGCTAGTGGTGCCACC (sugars l3 d14 l3, PS)” to “TTATTTCCAAATTCACTTTT (sugars l3 d14 l3, PS)”, the calcium oscillation score rises from 33 % of control to ≥ 200 % of control.

Compared with “TTTTCTCTCTTAACTTTATT (sugars l4 d12 l4, PS)”, “CCAAATTCCTCATAATCCAA (sugars l2 d15 l3, PS)” is lower in calcium oscillation score: 89 % of control for the first, 73.4 % of control for the second.

First: CTCACCCCAAACAAGA (sugars l3 d10 l3, PS)
Second: AGCCCTAAAGTCCCAG (sugars l3 d10 l3, PS)
The calcium oscillation score of the first is higher: 65.6 % of control for the first, 38.1 % of control for the second.

Compared with “CACATGCTCACACACCAC (sugars l2 d13 l3, PS)”, “TTATTTACACTGTCCTT (sugars l3 d10 l4, PS)” is lower in calcium oscillation score: 97.5 % of control for the first, 54.1 % of control for the second.

Compared with “CTTTATTTCCAAATTCAC (sugars lldlddddddddddldll, PS)”, CTTCATTCTTGCCCAA (sugars l3 d10 l3, PS) is lower in calcium oscillation score: 136 % of control for the first, 33.3 % of control for the second.

First: TTATTTCCAAATTCACTTTT (sugars lldldldddddddddlldll, PS)
Second: AGCCTCTAGCCACATGGACC (sugars l3 d14 l3, PS)
The calcium oscillation score of the first is higher: 110 % of control for the first, 16.1 % of control for the second.

Compared with CTACCATGTCGATGCT (sugars l3 d10 l3, PS), “CAACAATCCAACCACTAA (sugars l4 d10 l4, PS)” is lower in calcium oscillation score: 99.7 % of control for the first, 74.1 % of control for the second.

Compared with “ACTTTATTTCCAAATTCACT (sugars l5 d10 l5, PS)”, CTCATTGCAACTTTAAC (sugars l4 d9 l4, PS) is lower in calcium oscillation score: 98 % of control for the first, 84.9 % of control for the second.

Going from GATTTTACTACTCTCTT (sugars l4 d9 l4, PS) to “TCTTATTGCTTTCCAAT (sugars l3 d10 l4, PS)”, the calcium oscillation score rises from 85.5 % of control to 101 % of control.

First: ACTAACTCTAAGTAGACCCT (sugars l3 d14 l3, PS)
Second: TTGGGTGGAGTACGGACCAC (sugars l3 d14 l3, PS)
The calcium oscillation score of the first is higher: 40.3 % of control for the first, 0 % of control for the second.

“TTTGAAGTCCCGAGCCAAAG (sugars l3 d14 l3, PS)” and “GACTTGGGTGGAGTACGGAC (sugars l3 d14 l3, PS)” are the same in calcium oscillation score: 0 % of control for the first, 0 % of control for the second.

First: TTTCCCCATTTATCCTT (sugars l4 d11 l2, PS)
Second: GTTGGATCAGAGGGTC (sugars l3 d10 l3, PS)
The calcium oscillation score of the first is higher: 87.4 % of control for the first, 22.2 % of control for the second.

Compared with “TCCTCACTTTACACATTAA (sugars l4 d13 l2, PS)”, “ATGTTTTTTAACTCCCA (sugars l3 d11 l3, PS)” is higher in calcium oscillation score: 62.5 % of control for the first, 83.5 % of control for the second.

Compared with “GCAGGTATCCAGCCATATTT (sugars l3 d14 l3, PS)”, “CTTTTGAACCCATTCCA (sugars l3 d12 l2, PS)” is higher in calcium oscillation score: 29.4 % of control for the first, 82.2 % of control for the second.

First: ACTTTATTTCCAAATTCACTTTTAC (sugars lldldddddddddddddddddlldl, PS)
Second: TCAGTCCTAATCCTGT (sugars l3 d10 l3, PS)
The calcium oscillation score of the first is lower: 29.5 % of control for the first, 53.3 % of control for the second.

Going from TTAACCGAACTGCGAG (sugars l3 d10 l3, PS) to “CGTCCCAGCGTGATCTTCCA (sugars l5 d11 l4, PS)”, the calcium oscillation score falls from 46.1 % of control to 36.2 % of control.

Compared with ATGATGGATGTTGCCT (sugars l3 d10 l3, PS), AATAACATTAACCCTT (sugars l4 d8 l4, PS) is higher in calcium oscillation score: 0 % of control for the first, 72 % of control for the second.

Compared with “TGAAGTCAAGCTTCTCAGAT (sugars l3 d14 l3, PS)”, “CCACATTTGTCTTTAAC (sugars l3 d10 l4, PS)” is higher in calcium oscillation score: 0 % of control for the first, 42.9 % of control for the second.

Compared with “CTTTATTTCCAAATTCACTT (sugars l4 d12 l4, PS)”, “CCTCTGTCTTAACTTTT (sugars l3 d10 l4, PS)” is higher in calcium oscillation score: 0 % of control for the first, 97 % of control for the second.

Going from “TTTATTAATTCATAAATGAC (sugars l3 d14 l3, PS)” to “TATTTCCAAATTCACTTTTA (sugars lldlldddddddddldldll, PS)”, the calcium oscillation score rises from 46.3 % of control to 110 % of control.

Compared with GGAACTATTGATAA (sugars l3 d8 l3, PS), ACATCCTGCCATACCA (sugars l3 d11 l2, PS) is higher in calcium oscillation score: 0 % of control for the first, 45 % of control for the second.

First: TCCAAGTCAATGCCTGGCTT (sugars l3 d14 l3, PS)
Second: TATTTACACTGTCCTTT (sugars l4 d9 l4, PS)
The calcium oscillation score of the first is lower: 18.1 % of control for the first, 52.1 % of control for the second.

Compared with “AACTCAAATCAATTCTCATT (sugars l4 d12 l4, PS)”, “CAGTAACATCCATTTCT (sugars l4 d11 l2, PS)” is higher in calcium oscillation score: 73.2 % of control for the first, 86.2 % of control for the second.

Going from “TTATTAATTCATAAATGACT (sugars l3 d14 l3, PS)” to CACTGTTACACATTTAT (sugars l4 d9 l4, PS), the calcium oscillation score rises from 42.3 % of control to 68 % of control.

First: ACCAATTATCTTTAAATTCT (sugars l4 d13 l3, PS)
Second: GTTAGCCCTAAAGTCCCAGG (sugars l3 d14 l3, PS)
The calcium oscillation score of the first is higher: 77 % of control for the first, 27.9 % of control for the second.

Going from “TTAACTCATCAACACCTT (sugars l3 d11 l4, PS)” to GGTCTGGCATGGGCA (sugars l3 d9 l3, PS), the calcium oscillation score falls from 114 % of control to 59 % of control.

First: CTTCTGTCACTTATTTA (sugars l4 d9 l4, PS)
Second: TTCTAATTTAGTCACCA (sugars l3 d10 l4, PS)
The calcium oscillation score of the first is lower: 46.9 % of control for the first, 65.9 % of control for the second.

Compared with “TTATTTCCAAATTCACTTTT (sugars l5 d10 l5, PS)”, “TCTTCCACTACAAGCTCC (sugars l2 d14 l2, PS)” is lower in calcium oscillation score: ≥ 200 % of control for the first, 55.8 % of control for the second.

Compared with “AAACTCATTTACCAATTATC (sugars l4 d12 l4, PS)”, “CCCCACTTTTAATTAAATTT (sugars l3 d15 l2, PS)” is higher in calcium oscillation score: 56.8 % of control for the first, 97 % of control for the second.

First: GTTTGTAGACTATT (sugars l3 d8 l3, PS)
Second: CTCTTCAAATCATTCAAT (sugars l4 d10 l4, PS)
The calcium oscillation score of the first is higher: 125 % of control for the first, 69.7 % of control for the second.

Going from “CATCTACTTTCTGTCACC (sugars l2 d14 l2, PS)” to CCCGTGGTCTGTCTTG (sugars l3 d10 l3, PS), the calcium oscillation score falls from 63.4 % of control to 0 % of control.

Compared with “CCTCCCTTTAATGCCAGGCC (sugars l3 d14 l3, PS)”, “TTATTTCCAAATTCACTTTT (sugars llddldldddddddddllll, PS)” is higher in calcium oscillation score: 34.2 % of control for the first, 118 % of control for the second.

Compared with “ATTTCCAAATTCACTTTTAC (sugars l2 d1 l2 d11 l4, PS)”, TTCTCGCGGAAGGTCA (sugars l3 d10 l3, PS) is lower in calcium oscillation score: 147 % of control for the first, 0 % of control for the second.

First: CTGGTTTATGATGG (sugars l3 d8 l3, PS)
Second: CTACCATGTCGATG (sugars l3 d8 l3, PS)
The calcium oscillation score of the first is higher: 32.6 % of control for the first, 6.9 % of control for the second.

First: CCACCTCCTAGAACACA (sugars l2 d13 l2, PS)
Second: CCTTAATTTCACCCT (sugars l3 d9 l3, PS)
The calcium oscillation score of the first is lower: 50.9 % of control for the first, 140 % of control for the second.

First: CTTTATTTCCAAATTCACTT (sugars lldllddddddddddlldll, PS)
Second: CCCTGAAACCATTAACT (sugars l3 d12 l2, PS)
The calcium oscillation score of the first is higher: 117 % of control for the first, 69 % of control for the second.

Compared with “ACAGATATTCATTCCCT (sugars l4 d11 l2, PS)”, TTGGCTTTGGCGTT (sugars l3 d8 l3, PS) is higher in calcium oscillation score: 44.2 % of control for the first, 96.2 % of control for the second.

Going from GTGACAGAAGAGACGT (sugars l3 d10 l3, PS) to TTTCAACTCTTAGCATC (sugars l4 d9 l4, PS), the calcium oscillation score rises from 0 % of control to 70.8 % of control.

Going from TTACAAGCATTTCAAG (sugars l3 d10 l3, PS) to “ATTTCCAAATTCACTTTTAC (sugars lllldddddddddlddldll, PS)”, the calcium oscillation score rises from 36.8 % of control to 110 % of control.
